What was measured:
[1] = system: acid phosphatase and pyrophosphatase; experiment: Inhibition of the enzymatic hydrolysis of pyrophosphate; format: biochemical; settings: 480 ppm pyrophosphate, tris buffer pH=7
Protocol: To a solution, 3 ml, containing 480 ppm of pyrophosphate, various polymers, as defined in the table, optionally in combination with fluoride, and tris buffer (pH=7), 6*10^-2 U acid phosphatase and 4*10^-2 U pyrophosphatase ware added. The enzymatic hydrolysis of pyrophosphatase was determined by the withdrawal of 0.5 ml samples and measuring the orthophosphate concentration (V/MO complex).

[2] = Triclosan concentration in supernatant with polymer; settings: 3000 ppm triclosan, no polymer
Protocol: Polymer and 3000 ppm bactericide (Bromochlorophene (BCP) or triclosan) were solved in distilled water at pH=12.5 (NaOH). […] The bactericide concentration was determined at pH 8, 7 or 6 in the supernatant solution by UV/VIS at pH=12.5 and 37° C.

Row | ppm triclosan in supernatant at pH 6 [2] | ppm triclosan in supernatant at pH 7 [2] | ppm triclosan in supernatant at pH 8 [2] | SMILES | ppm orthophosphate after 60 min [1] | ppm orthophosphate after 120 min [1] | ppm orthophosphate after 240 min [1]
1 | – | – | – | [F-].[Na+] [NaF, sodium fluoride] | 1.8 ppm | 3.9 ppm | 9.6 ppm
2 | 7 ± 3 ppm | 15 ± 1 ppm | 30 ± 2 ppm | Oc1cc(Cl)ccc1Oc1ccc(Cl)cc1Cl [triclosan, 5-chloro-2-(2,4-dichlorophenoxy)phenol] | – | – | –

— US5670138A, “Mouth-care products” (Sara Lee/DE N.V., priority 1994, dated 1997)
